Reference: PMC10999543, “Identification of kinase modulators as host-directed therapeutics against intracellular methicillin-resistant Staphylococcus aureus” (Frontiers in Cellular and Infection Microbiology, 2024)
Read-outs that look alike come from different tables or passages of the source.

Legend:
HeLa cells = experiment: Compound screen by flow cytometry: HeLa cell count as surrogate readout of cell viability (z-scoreHeLa); format: cell-based, human; details: for cell count rep 1 / z-scoreHeLa rep 1: replicate 1; for cell count rep 2 / z-scoreHeLa rep 2: replicate 2; for cell count rep 3 / z-scoreHeLa rep 3: replicate 3; for z-scoreHeLa mean: mean of 3 replicates
How it was run: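 HeLa cells were infected with GFP-MRSA (mean MOI 6.8 ± 4.6) for 1 h, and extracellular bacteria were killed with 30 µg/ml gentamicin. Cells were then incubated overnight with kinase inhibitors in 5 µg/ml gentamicin, in triplicate against DMSO controls. Flow-cytometric cell count served as a viability surrogate, expressed as a plate z-score.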

intracellular MRSA = format: cell-based, Staphylococcus aureus; details: for %GFP+ rep 1 / z-scoreMRSA+ rep 1: replicate 1; for %GFP+ rep 2 / z-scoreMRSA+ rep 2: replicate 2; for %GFP+ rep 3 / z-scoreMRSA+ rep 3: replicate 3; for z-scoreMRSA+ mean: mean of 3 replicates
How it was run: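 HeLa cells infected with GFP-MRSA (MOI ~6.8), gentamicin-cleared, then incubated overnight at 37°C with inhibitors plus 5 µg/ml gentamicin; DMSO as negative control, triplicates. Flow cytometry gave % GFP-positive cells and cell count (viability surrogate); hits by plate z-score (MRSA ≤ -2, HeLa count ≥ -3).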

[1] = PKIS compound screen raw data, HeLa cell count
[2] = compound screen, HeLa cell count
[3] = PKIS compound screen raw data, MRSA-infected HeLa cells
[4] = Yes/No: effect without cell death
[5] = compound screen, MRSA-infected HeLa cells
[6] = PKIS compound screen, HeLa cell count
[7] = PKIS compound screen, MRSA-infected HeLa cells
[8] = PKIS compound screen, Yes/No call (effect without cell death)
[9] = PKIS compound screen, Yes/No call
[10] = PKIS compounds raw data, HeLa cell count
[11] = PKIS compounds raw data, MRSA-infected HeLa cells

Row | SMILES | cell count rep 1 (HeLa cells; [1]) | cell count rep 2 (HeLa cells; [1]) | cell count rep 3 (HeLa cells; [1]) | cell death (HeLa cells; Yes/No call from z-scoreHeLa) | z-scoreHeLa mean (HeLa cells; [2]) | z-scoreHeLa rep 1 (HeLa cells; [2]) | z-scoreHeLa rep 2 (HeLa cells; [2]) | z-scoreHeLa rep 3 (HeLa cells; [2]) | %GFP+ rep 1 (intracellular MRSA; [3]) | %GFP+ rep 2 (intracellular MRSA; [3]) | %GFP+ rep 3 (intracellular MRSA; [3]) | effect (intracellular MRSA; Yes/No call from z-scoreMRSA+) | hit (intracellular MRSA; [4]) | z-scoreMRSA+ mean (intracellular MRSA; [5]) | z-scoreMRSA+ rep 1 (intracellular MRSA; [5]) | z-scoreMRSA+ rep 2 (intracellular MRSA; [5]) | z-scoreMRSA+ rep 3 (intracellular MRSA; [5]) | hit (intracellular MRSA; [8]) | other results
1 | COc1cccc(NC(=O)NCCNc2ccnc(Nc3ccc(F)cc3)n2)c1 [GSK1379879A] | 4370 | 3480 | 4436 | No | -0.38 | 0.0133 | -0.63 | -0.51 | 22.7% | 22.0% | 21.2% | No | No | -0.35 | -0.60 | -0.15 | -0.30 |  | 
2 | O=C(NCCNc1ccnc(Nc2ccc(F)cc2)n1)Nc1ccccc1F [GSK1379880A] | 4656 | 4642 | 6039 | No | 0.33 | 0.22 | 0.26 | 0.51 | 25.7% | 21.6% | 22.7% | No | No | 0.00131 | 0.10 | -0.25 | 0.15 |  | 
3 | COc1ccc(Nc2nccc(NCCNC(=O)Nc3ccccc3F)n2)cc1 [GSK1379901A] | 4960 | 3999 | 4730 | No | -0.04 | 0.44 | -0.23 | -0.32 | 25.4% | 21.0% | 21.4% | No | No | -0.20 | 0.03 | -0.39 | -0.24 |  | 
4 | Cc1ccc(NC(=O)c2ccc(Cl)cc2)cc1-c1ccc(C(=O)Nc2ccncc2)cc1 [GSK1398467A] | 10600 | 12964 | 20345 |  |  |  |  |  | 17.7% | 18.1% | 16.2% |  |  |  |  |  |  | No | z-scoreHeLa mean (HeLa cells; [6]): -2.91; z-scoreHeLa rep 1 (HeLa cells; [6]): -1.44; z-scoreHeLa rep 2 (HeLa cells; [6]): -4.07; z-scoreHeLa rep 3 (HeLa cells; [6]): -3.21; cell death (HeLa cells; PKIS compound screen, Yes/No call on z-scoreHeLa): No; z-scoreMRSA+ mean (intracellular MRSA; [7]): -0.42; z-scoreMRSA+ rep 1 (intracellular MRSA; [7]): -0.05; z-scoreMRSA+ rep 2 (intracellular MRSA; [7]): -0.13; z-scoreMRSA+ rep 3 (intracellular MRSA; [7]): -1.09; effect (intracellular MRSA; PKIS compound screen, Yes/No call on z-scoreMRSA+): No
5 | Cc1ccc(NC(=O)Nc2ccccc2)cc1-c1ccc(C(=O)Nc2ccncc2)cc1 [GSK1398471A] |  |  |  |  |  |  |  |  |  |  |  |  |  |  |  |  |  | No | cell death (HeLa cells; [9]): No; z-scoreHeLa mean (HeLa cells; PKIS compound screen): -2.19; z-scoreHeLa rep 1 (HeLa cells; PKIS compound screen): -2.47; z-scoreHeLa rep 2 (HeLa cells; PKIS compound screen): -2.21; z-scoreHeLa rep 3 (HeLa cells; PKIS compound screen): -1.88; cell count rep 1 (HeLa cells; [10]): 1939; cell count rep 2 (HeLa cells; [10]): 2675; cell count rep 3 (HeLa cells; [10]): 2624; effect (intracellular MRSA; [9]): No; z-scoreMRSA+ mean (intracellular MRSA; PKIS compound screen): 2.16; z-scoreMRSA+ rep 1 (intracellular MRSA; PKIS compound screen): 1.78; z-scoreMRSA+ rep 2 (intracellular MRSA; PKIS compound screen): 2.78; z-scoreMRSA+ rep 3 (intracellular MRSA; PKIS compound screen): 1.92; %GFP+ rep 1 (intracellular MRSA; [11]): 36.2%; %GFP+ rep 2 (intracellular MRSA; [11]): 40.5%; %GFP+ rep 3 (intracellular MRSA; [11]): 37.6%
6 | Cc1cc(-c2ccnc(Nc3cccc(C#N)c3)n2)cc(C)c1O [GSK1440913A] | 3913 | 3957 | 5747 | No | -0.09 | -0.32 | -0.27 | 0.32 | 19.8% | 21.2% | 19.2% | No | No | -0.84 | -1.28 | -0.34 | -0.90 |  | 
